The values below come from patent US20100152274A1, “CRYSTALLINE FORMS OF ATORVASTATIN 4-(NITROOXY) BUTYL ESTER” (Nicox S.A., priority 2007, published 2010).

Entries after “also recorded” stand apart in the source; their conditions may differ.

Format in all cases: physicochemical
Data set [1] can be described thus: General stability statements (humidity, water, organic solvents, heat). As to conditions: no test details.
The nature of data set [2]: Stability of amorphous form in aqueous suspension at room temperature, monitored by Raman spectroscopy and PXRD. Particulars: for RESULTING FORM: Suspension in H2O, rt. The method, then:
Stability of amorphous atorvastatin 4-(nitrooxy)butyl ester in aqueous suspension was assessed. Amorphous atorvastatin 4-(nitrooxy)butyl ester was suspended in water at room temperature while stirring and monitored by Raman spectroscopy after one, seven and twenty-eight days.

Data set [3] is described as follows: Stability at 40° C. and 75% of relative humidity, open vials, monitored by Raman spectroscopy and PXRD. As to conditions: for Stability in the reported conditions (heat and humidity): 40° C. and 75% r.h., summary statement; for Change of solid form by PXRD and Raman: open vials, 40° C., 75% relative humidity, after one and four weeks; for RESULTING FORM: Storage at 40° C. and 75% r.h., 28 d. How it is done: Stability at 40° C. and 75% of relative humidity of atorvastatin 4-(nitrooxy)butyl ester A and form B in comparison with the amorphous form was assessed. Atorvastatin 4-(nitrooxy)butyl ester form A, form B and amorphous were stored in open vials for one month at 40° C. and in presence of 75% of relative humidity, and the samples were monitored by Raman spectroscopy and by PXRD after one and four weeks.

With `CC(C)c1c(C(=O)Nc2ccccc2)c(-c2ccccc2)c(-c2ccc(F)cc2)n1CC[C@@H](O)C[C@@H](O)CC(=O)OCCCCO[N+](=O)[O-]` [Amorphous, atorvastatin 4-(nitrooxy)butyl ester], in data set [1] (listed as amorphous form of Atorvastatin 4-(nitrooxy)butyl ester), the “Stability (general statement)” value was “unstable at humidity conditions, in organic solvents and in stressed thermal conditions”. In addition, the “RESULTING FORM” value in data set [2] (1 d.) was “Amorphous”; in data set [2] (1 d., listed as Amorphous atorvastatin 4-(nitrooxy)butyl ester), “pure amorphous”; in data set [2] (7 d.), “Amorphous (+B)”; in data set [2] (7 d., listed as Amorphous atorvastatin 4-(nitrooxy)butyl ester), “detectable amount of form B was observed; also recorded: start of crystallization of form B”; in data set [2] (28 d.) it was “Amorphous + B”; in data set [2] (28 d., listed as Amorphous atorvastatin 4-(nitrooxy)butyl ester) it was “mixture of amorphous form and form B”. Besides, the “Stability in aqueous suspension” value in data set [2] (room temperature, summary statement) was “not stable in aqueous suspension at room temperature”. Besides, the “Stability in the reported conditions (heat and humidity)” value (from here on “Stability in the reported conditions”) in data set [3] (listed as Amorphous form) is reported as “not stable, showing rapid conversion to form B”. Besides, in data set [3] (listed as amorphous atorvastatin 4-(nitrooxy)butyl ester), the “Change of solid form by PXRD and Raman” value is “converts to form B”.
Turning to `CC(C)c1c(C(=O)Nc2ccccc2)c(-c2ccccc2)c(-c2ccc(F)cc2)n1CC[C@@H](O)C[C@@H](O)CC(=O)OCCCCO[N+](=O)[O-]` [Form A, (βR,δR)-2(4-fluorophenyl)-β,δ-dihydroxy-5-(1-methylethyl)-3-phenyl-4-[(phenylamino)carbon-yl]-1H-pyrrole-1-heptanoic acid 4-(nitrooxy)butyl ester], the “Stability (general statement)” value in data set [1] is “good stability in water, in organic solvents, and when exposed to heat and humidity”. Moreover, in data set [3], the “Stability in the reported conditions” value was “stable in the reported conditions for at least four weeks”; the “RESULTING FORM” value is given as “Form A”; the “Change of solid form by PXRD and Raman” value is given as “no differences in the solid form”.
On to `CC(C)c1c(C(=O)Nc2ccccc2)c(-c2ccccc2)c(-c2ccc(F)cc2)n1CC[C@@H](O)C[C@@H](O)CC(=O)OCCCCO[N+](=O)[O-]` [Form B, (βR,δR)-2(4-fluorophenyl)-β,δ-dihydroxy-5-(1-methylethyl)-3-phenyl-4-[(phenylamino)carbon-yl]-1H-pyrrole-1-heptanoic acid 4-(nitrooxy)butyl ester], for which the “Stability (general statement)” value in data set [1] is “good stability in water, in organic solvents, and when exposed to heat and humidity”. In addition, in data set [3], the “Stability in the reported conditions” value is reported as “stable in the reported conditions for at least four weeks”; the “RESULTING FORM” value was “Form B”; the “Change of solid form by PXRD and Raman” value was “no differences in the solid form”.
